# Key:
# [1] = system: fungus, bacteria and viruses and plant pests in all stages such as eggs, larva, adults; test: Spray with wetting agent to control plant pathogens and pests; format: in vivo; settings: 3 liters (active ingredient at least 20%) plus 500 cc of non-ionic fatty amine compounds in 1000 liters of water
# Text: For longer durability of Ethaneperoxoic acid based compounds, non-ionic fatty amine compounds (wetting agent) should be used in this method for the first time in two different ways, both within the formulation or added separately to the compound. These compounds cause the Ethaneperoxoic acid that is sprayed on the target to increase the duration of exposure of Ethaneperoxoic acid to the chitin surface of insects due to the reduction of surface tension of water droplets.
# [2] = system: Chilo suppressalis; test: Field protocol against Chilo suppressalis in rice; format: in vivo; settings: six-step protocol, dosage of 1 to 2 in one thousand from transplantation treasury to before harvest
# Text: In this invention ethaneperoxoic acid used for the first time to fight with Chilo suppressalis with the below mentioned method: • Step 1: The dosage of 1 in one thousand in the transplantation treasury; • Step 2: At the time of transferring the seedlings to the field with the dosage of 1 in one thousand to fight with the first generation; • Step 3: 10 days after transferring the seedlings to the field with the dosage of 1 in one thousand to fight with the second generation; • Step 4: 30 days after transferring the seedlings to the field with the dosage of 1 in one thousand; • Step 5: 45 days after transferring the seedlings to the field with the dosage of 2 in one thousand and 1 in one thousand to fight with the third generation; • Step 6: before harvesting the rice with the dosage of 2 in one thousand.
compound,measurement,setting,value
CC(=O)OO [ethaneperoxoic acid],"effect in controlling fungus, bacteria and viruses and plant pests in all stages",[1],significant impressive effect
same,damage due to the Chilo suppressalis,[2],completely control
